According to ChEMBL document CHEMBL1131315, “Synthesis and anticonvulsant activity of 2(3H)-benzoxazolone and 2(3H)-benzothiazolone derivatives” (J Med Chem, 1998):
Values joined by “and” are separate entries in the source; they are usually repeats but may differ in a detail not shown here. Equal values may be shown once. Active and inactive are the calls of the source. No cut-off for these calls is given here.

Tests used:
Mus musculus [1] = experiment: Time of peak effect in mice following i.p. administration.; assay type: functional
Mus musculus [2] = experiment: The compound was tested for anticonvulsant activity in Maximal electroshock seizure test for 30 min in mice(ip); active at 30 mg/kg; assay type: functional, organism-based; parameters: dose 30 mg/kg
Mus musculus [3] = experiment: The compound was tested for anticonvulsant activity in Maximal electroshock seizure test (MES) for 4 hr in mice(ip); active at 300 mg/kg; assay type: functional, organism-based; parameters: dose 300 mg/kg
Mus musculus [4] = experiment: The compound was tested to inhibit 50% of induced maximal electroshock seizure in mice on ip administration.; assay type: functional
Mus musculus [5] = experiment: Inhibition of s.c. pentylenetetrazole induced seizure in mice following i.p. administration.; assay type: functional
Mus musculus [6] = experiment: (§1) The compound was determined for the dose (mg/kg) by rotarod test at the time of peak neurotoxic effect in mice on ip administration.; assay type: functional
Mus musculus [7] = experiment: Anticonvulsant activity in subcutaneous pentylenetetrazole seizure test for 30 min in mice; No activity/toxicity at 300 mg/kg.; assay type: functional, organism-based; parameters: dose 300 mg/kg
Mus musculus [8] = experiment: The anticonvulsant activity in subcutaneous pentylenetetrazole seizure test (sc Met) for 4 hr in mice; no activity or no toxicity at 300 mg/kg; assay type: functional, organism-based; parameters: dose 300 mg/kg
[9] = The compound was tested for neurologic toxicity (rotarod) test for 30 min in mice; active at 300 mg/kg; assay type: organism-based; parameters: dose 300 mg/kg; conditions: mouse, in vivo, 0.5 h
[10] = The compound was tested for time of peak effect (TPE) in hours for its toxicity in mice on ip administration.; assay type: organism-based; conditions: mouse, in vivo
[11] = (§2) The compound was tested for neurologic toxicity (rotarod) test for 4 hours in mice; active at 300 mg/kg; assay type: organism-based; parameters: dose 300 mg/kg; conditions: mouse, in vivo
Mus musculus [12] = experiment: The compound was tested for anticonvulsant activity in Maximal electroshock seizure test (MES) for 4 hr in mice(ip); no activity or toxicity at 300 mg/kg; assay type: functional, organism-based; parameters: dose 300 mg/kg
Mus musculus [13] = experiment: Anticonvulsant activity in Maximal electroshock seizure test at 100 mg/kg i.p. in mice.; assay type: functional, organism-based; parameters: dose 100 mg/kg
[14] = The compound was tested for neurologic toxicity (rotarod) test for 30 min in mice; no activity or no toxicity at 300 mg/kg; assay type: organism-based; parameters: dose 300 mg/kg; conditions: mouse, in vivo, 0.5 h
[15] = The compound was tested for neurologic toxicity (rotarod) test for 4 hours in mice; no activity or no toxicity at 300 mg/kg; assay type: organism-based; parameters: dose 300 mg/kg; conditions: mouse, in vivo
Mus musculus [16] = experiment: The compound was tested to inhibit 50% of induced maximal electroshock seizure in mice on ip administration; assay type: functional
Mus musculus [17] = experiment: The compound was tested to inhibit 50% of induced subcutaneous pentylenetetrazole seizure in mice on ip administration; assay type: functional
Mus musculus [18] = experiment: The compound was determined for the dose (mg/kg) by rotarod test at the time of peak neurotoxic effect in mice on ip administration; assay type: functional
Mus musculus [19] = experiment: The compound was tested for anticonvulsant activity in Maximal electroshock seizure test (MES) for 4 hr in mice(ip); active at 100 mg/kg; assay type: functional, organism-based; parameters: dose 100 mg/kg
Mus musculus [20] = experiment: The compound was tested for anticonvulsant activity in subcutaneous pentylenetetrazole seizure test (sc Met) for 30 min in mice; active at 300 mg/kg; assay type: functional, organism-based; parameters: dose 300 mg/kg
Mus musculus [21] = experiment: The compound was tested for anticonvulsant activity in subcutaneous pentylenetetrazole seizure test (sc Met) for 4 hr in mice; active at 300 mg/kg; assay type: functional, organism-based; parameters: dose 300 mg/kg
[22] = (§3) The compound was tested for neurologic toxicity (rotarod) test for 30 min in mice; active at 100 mg/kg; assay type: organism-based; parameters: dose 100 mg/kg; conditions: mouse, in vivo, 0.5 h
Mus musculus [23] = species: Mus musculus; experiment: Protective index value is the ratio between TD50 and ED50 values.; assay type: functional
Mus musculus [24] = experiment: The compound was tested for anticonvulsant activity in subcutaneous pentylenetetrazole seizure test (sc Met) for 30 min in mice; active at 100 mg/kg; assay type: functional, organism-based; parameters: dose 100 mg/kg
Rattus norvegicus [25] = experiment: The compound was tested for the effective oral dose to inhibit 50% of the anticonvulsant in rats; assay type: functional
Rattus norvegicus [26] = experiment: The compound was tested for the toxic dose on oral administration.; assay type: functional
Rattus norvegicus [27] = species: Rattus norvegicus; experiment: Protective index value is the ratio between ED50 and TD50; assay type: functional
[28] = as §1; assay type: ADME, organism-based; conditions: mouse, in vivo
Mus musculus [29] = experiment: as §2; assay type: functional, organism-based; parameters: dose 300 mg/kg
Mus musculus [30] = experiment: as §3; assay type: functional, organism-based; parameters: dose 100 mg/kg
Sigma 2 receptor = experiment: Affinity on sigma 2 receptor using [3H]- DTG as radioligand
[31] = target: Sigma non-opioid intracellular receptor 1 (Homo sapiens) (UniProt Q99720); experiment: Ratio between the Ki(nM)values of sigma-2 and sigma-1; assay type: functional
Chain of Sigma non-opioid intracellular receptor 1 (Homo sapiens) (Q99720 whole entry): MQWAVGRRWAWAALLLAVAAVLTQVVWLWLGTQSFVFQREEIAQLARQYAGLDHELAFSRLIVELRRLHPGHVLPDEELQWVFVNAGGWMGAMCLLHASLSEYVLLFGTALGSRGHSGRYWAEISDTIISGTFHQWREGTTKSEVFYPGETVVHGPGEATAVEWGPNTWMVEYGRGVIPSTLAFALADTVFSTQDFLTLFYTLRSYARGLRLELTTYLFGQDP

Structure (SMILES) | Activity (Mus musculus [1]) [h] | ED50 (Mus musculus [5]) [mg/kg] | scMet (Mus musculus [7]) | scMet (Mus musculus [8]) | Toxicity [10] [h] | Rotarod toxicity [11] | MES (Mus musculus [13]) | Rotarod toxicity [15] | MES (Mus musculus [19]) | scMet (Mus musculus [21]) | further results
CCC(=O)c1ccc2c(c1)sc(=O)n2CCN(C)C | 0.25 | > 130 | No activity or no toxicity at 300 mg/kg | No activity or no toxicity at 300 mg/kg | 0.25 | active at 300 mg/kg |  |  |  |  | MES (Mus musculus [2]): active at 30 mg/kg; MES (Mus musculus [3]): active at 30 mg/kg; ED50 (Mus musculus [4]): 21.8 mg/kg; TD50 (Mus musculus [6]): 84.5 mg/kg; Rotarod toxicity [9]: active at 300 mg/kg
O=C(c1ccccc1)c1ccc2nc(O)oc2c1 |  |  | No activity or no toxicity at 300 mg/kg | No activity or no toxicity at 300 mg/kg |  |  | No activity or toxicity at 300 mg/kg | No activity or no toxicity at 300 mg/kg |  |  | MES (Mus musculus [12]): No activity or toxicity at 300 mg/kg; Rotarod toxicity [14]: No activity or no toxicity at 300 mg/kg
CCC1(c2ccccc2)C(=O)NC(=O)NC1=O [PHENOBARBITAL] |  |  |  |  |  |  |  |  |  |  | ED50 (Mus musculus [16]): 21.8 mg/kg; ED50 (Mus musculus [17]): 13.2 mg/kg; TD50 (Mus musculus [18]): 69 mg/kg
CCCc1ccc2nc(O)sc2c1 |  |  |  |  |  | active at 100 mg/kg | active at 100 mg/kg |  | active at 100 mg/kg | active at 300 mg/kg | scMet (Mus musculus [20]): active at 300 mg/kg; Rotarod toxicity [22]: active at 100 mg/kg
Oc1nc2ccc(Cc3ccc(F)cc3)cc2o1 | 1 | 218 |  |  | 1 | active at 100 mg/kg | active at 100 mg/kg |  | active at 100 mg/kg | active at 100 mg/kg | ED50 (Mus musculus [4]): 125 mg/kg; PI (Mus musculus [23]): 2.8 and 1.6; scMet (Mus musculus [24]): active at 100 mg/kg; ED50 (Rattus norvegicus [25]): 11.9 mg/kg; TD50 (Rattus norvegicus [26]): > 220 mg/kg; PI (Rattus norvegicus [27]): 18.5; Rotarod toxicity [22]: active at 100 mg/kg; TD50 [28]: 356 mg/kg
O=c1[nH]c2ccccc2s1 |  |  |  |  |  |  | active at 300 mg/kg |  |  | active at 100 mg/kg | MES (Mus musculus [3]): active at 300 mg/kg; Rotarod toxicity (Mus musculus [29]): active at 100 mg/kg; Rotarod toxicity (Mus musculus [30]): active at 100 mg/kg; scMet (Mus musculus [24]): active at 100 mg/kg
Cn1c(=O)oc2cc(C(=O)c3ccccc3)ccc21 |  |  |  | active at 300 mg/kg |  |  | No activity or toxicity at 300 mg/kg | No activity or no toxicity at 300 mg/kg |  |  | MES (Mus musculus [12]): No activity or toxicity at 300 mg/kg; scMet (Mus musculus [20]): active at 300 mg/kg; Rotarod toxicity [14]: No activity or no toxicity at 300 mg/kg
O=c1oc2cc(Cc3ccccc3)ccc2n1CCN1CCOCC1 | 1 | > 225 | No activity or no toxicity at 300 mg/kg | No activity or no toxicity at 300 mg/kg | 1 |  | active at 100 mg/kg | active at 300 mg/kg | active at 100 mg/kg |  | ED50 (Mus musculus [16]): 87 mg/kg; TD50 (Mus musculus [6]): 194 mg/kg; Ki (Sigma 2 receptor): 515 nM; Ratio [31]: 7; Rotarod toxicity [9]: active at 300 mg/kg
